According to patent US20260053171A1, “METHANOGEN INHIBITORS” (AGRIZERONZ LIMITED PARTNERSHIP, priority 2022, published 2026):

How the values were obtained:
[1] = tested on: methane emissions from cattle; assay: Example 3: in vivo cattle trial on methane emissions (respiration chambers, dosing in feed twice daily)
Description: (§1) The trial for testing the effects of various doses of Compound 64 on methane emissions from cattle over four 48-hour periods in methane measurement chambers was approved by the Grasslands Animal Ethics Committee. Four cattle (Friesian dairy heifers, approximately 400 kg) were used for each of two Compound 64 treatment groups. The animals received a general-purpose diet (GP) at 1.5× maintenance energy requirements throughout the trials consisting of 500 g hay, 100 g soybean meal, 290 g barley, 100 g molasses and 10 g mineral mix. During the time in the respiration chambers the animals had free access to water, with the feed offered twice a day at approximately 9:00 and 16:00 h in equal amounts. Feed refusals were weighed.
(§2) The animals were adapted to GP diet for 14 days prior to entering the methane measurement chambers. Rumen contents were sampled by stomach tubing before methane emissions were measured in the respiration chambers and the day after being released from the chambers to allow for the future examination of any effects on volatile fatty acids (VFAs). Rumen samples from stomach tubing were immediately subsampled for short chain fatty acid (SCFA) analysis (1.8 ml). The samples were centrifuged (20,000 g, 10 min, 4° C.). An aliquot of 0.9 ml of the supernatant was collected into 0.1 ml of internal standard (19.8 mM ethylbutyrate in 20% v/v phosphoric acid) for SCFA analysis and stored at −20° C. SCFA samples were thawed and centrifuged (20,000 g, 10 min, 4° C.) and 800 μl of the supernatant was collected into a crimp cap glass vial. SCFA were analysed by a HP 6890 gas chromatograph (Attwood et al., 1998).
After the 14-day acclimatisation period, methane emissions were measured in open circuit respiration chambers as described in Chapter 1 of the technical manual on respiration chamber design (http://www.globalresearchalliance.org/wp-content/uploads/2012/03/GRA-MAN-Facility-BestPract-012-ch13.pdf). Dry matter intake (DMI, kg/d) was recorded during methane measurements from the weight difference of feed offered and refused. Chamber measurements were made once a week for five weeks. The first period in the chambers (48-hour period; Period 1) served as a control for each animal. […]
Methane gas outputs for the four 48-hour treatment periods (Periods 2-5) in open circuit respiration chambers were determined and are summarised in Table 1. There were little or no feed refusals.

[2] = tested on: methane emissions from sheep; assay: Example 2: in vivo study on sheep methane emissions (respiration chambers, dosing in feed twice daily); conditions: for CH4 Inhibition [%] Average Days 1-3: Average Days 1-3, dose mg/day: Compound 60 412, 69 311, 67 414, 64 344
Description: as §1, with “Compound 60, Compound 69, Compound 67 and” for “various doses of”, “sheep” for “cattle”, “a 96-hour period” for “four 48-hour periods”, “Three sheep” for “Four cattle (Friesian dairy heifers, approximately 400 kg)”, “Compound 60 and Compound 69 treatment group and six sheep were used for each Compound 67 and” for “of two”, “group.” for “groups.”
as §2
After the 14-day acclimatisation period, methane emissions were measured in open circuit respiration chambers as described in Chapter 1 of the technical manual on respiration chamber design (http://www.globalresearchalliance.org/wp-content/uploads/2012/03/GRA-MAN-Facility-BestPract-2012-ch13.pdf). Dry matter intake (DMI, kg/d) was recorded during methane measurements from the weight difference of feed offered and refused. The first day in the chambers (24-hour period; Period 1) served as a control for each animal. For the next three days the sheep received Compound 60, Compound 69, Compound 67 and Compound 64 at 412, 311, 414 and 344 mg per day, respectively (72-hour period; Period 2).
Methane gas outputs for the 96-hour period (first 24 hours for background measurements (Period 1), followed by three days of dosing (Period 2)) in open circuit respiration chambers were determined and are summarised in Table 2.

[3] = tested on: methane production in rumen fluid; assay: Rumen in vitro (RIV) assay, methane production from rumen fluid incubations; type: cell-based, cattle; conditions: Bos taurus, read-out: RIV % methane reduction +/− SD
Summary of the method: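 Rumen fluid from two fistulated cattle diluted 12 ml in 48 ml buffer with ryegrass substrate, incubated in sealed bottles at 39° C for 24-48 h in duplicate. Inhibitors added in DMF (stocks 1000-fold above highest assay level); total gas, methane and H2 measured automatically; 30 μM BES positive control, no-inhibitor negative control.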

female Swiss mice = assay: Toxicity testing in mice according to OECD 423; type: in vivo; conditions: 300 mg/kg, single dose by oral gavage in corn oil, observed 14 days
Procedure: The potential toxicology of Compound 19 was tested according to OECD 423. Mice testing used two groups with three mice (female Swiss mice, non-pregnant), all at approximately 8-9 weeks of age. On the day of testing, food was withdrawn 1-2 hours prior to dosing. Following fasting, the animals were weighed and the test substances administered. Access to food was resumed 1-2 hours after administration of the compounds. The compounds were administered in a single dose by oral gavage in corn oil (maximum of 0.3 ml per dose) at the selected dose and the time recorded. The mice were observed individually after dosing at least once during the first 30 minutes, periodically over the first 24 hours, with special attention given to the first 4 hours, and then daily thereafter for a total of 14 days. The mice were weighed every seven days (0, 7 and 14 days). All observations were systematically recorded for each individual animal. These observations included (if present): tremors, convulsions, salivation, diarrhoea, lethargy, sleep, coma, and changes in fur, skin, eyes, mucus membranes, respiration, motor activity and behaviour.

[4] = tested on: methane emissions from sheep; assay: Example 1: in vivo study on sheep methane emissions (respiration chambers, once-daily drench); conditions: once-daily drenching, 121.3 mg/day, average of 3 sheep
Procedure: The trial for testing the effects of Compound 19 on methane emissions from sheep over a 96 hour period in methane measurement chambers was approved by the Grasslands Animal Ethics Committee, and the use of the compounds in animals by the New Zealand Food Safety Authority, as required under ACVM legislation. Three sheep were used for each Compound 19 treatment group. The animals received a general-purpose diet (GP) at 1.5× maintenance energy requirements throughout the trials consisting of 500 g hay, 100 g soy bean meal, 290 g barley, 100 g molasses and 10 g mineral mix. During the time in the respiration chambers the animals had free access to water, with the feed offered twice a day at approximately 9:00 and 16:00 h in equal amounts. Feed refusals were weighed.
as §2, with “An aliquot of 0.9 ml of the supernatant was collected into 0.1 ml of internal standard (19.8 mM ethylbutyrate in 20% v/v phosphoric acid) for SCFA analysis and stored at −20° C. SCFA samples were thawed and centrifuged (20,000 g, 10 min, 4° C.) and 800 μl of the supernatant was collected into a crimp cap glass vial.” left out
After the 14-day acclimatisation period, methane emissions were measured in open circuit respiration chambers as described in Chapter 1 of the technical manual on respiration chamber design (http://www.globalresearchalliance.org/wp-content/uploads/2012/03/GRA-MAN-Facility-BestPract-2012-ch13.pdf). Dry matter intake (DMI, kg/d) was recorded during methane measurements from the weight difference of feed offered and refused. […]
Methane gas outputs for the 96-hour period (first 24 hours for background measurements (Period 1), followed by three days of dosing) in open circuit respiration chambers were determined and are summarised in Table 1.

[5] = Day 1, dose mg/day: Compound 60 412, 69 311, 67 414, 64 344
[6] = Day 2, dose mg/day: Compound 60 412, 69 311, 67 414, 64 344
[7] = Day 3, dose mg/day: Compound 60 412, 69 311, 67 414, 64 344

| Compound | CH4 Inhibition [%] ([1]; High dose group, Period 2, 150 mg/day) | CH4 Inhibition [%] ([1]; High dose group, Period 3, 450 mg/day) | CH4 Inhibition [%] ([1]; High dose group, Period 4, 450 mg/day) | CH4 Inhibition [%] ([1]; High dose group, Period 5, 450 mg/day) | CH4 Inhibition [%] ([1]; Low dose group, Period 2, 50 mg/day) | CH4 Inhibition [%] ([1]; Low dose group, Period 3, 300 mg/day) | CH4 Inhibition [%] ([1]; Low dose group, Period 4, 300 mg/day) | CH4 Inhibition [%] ([1]; Low dose group, Period 5, 300 mg/day) | CH4 Inhibition [%] Average Days 1-3 [2] | CH4 Inhibition [%] [2, 5] | CH4 Inhibition [%] [2, 6] | CH4 Inhibition [%] [2, 7] | inhibition at 2 µM [3] | inhibition at 10 µM [3] | inhibition at 50 µM [3] | adverse effects (OECD 423) (female Swiss mice) | CH4 Inhibition [%] ([4]; Day 1) | CH4 Inhibition [%] ([4]; Day 2) | CH4 Inhibition [%] ([4]; Day 3) |
| --- | --- | --- | --- | --- | --- | --- | --- | --- | --- | --- | --- | --- | --- | --- | --- | --- | --- | --- | --- |
| CC(C)Oc1ccc(-c2ccc(C3=NN(C(=O)CCC(=O)O)C(c4ccc5nccnc5c4)C3)cc2)cc1 (stereo not shown) [Compound 64, 4-(3-(4′-Isopropoxy-[1,1′-biphenyl]-4-yl)-5-(quinoxalin-6-yl)-4,5-dihydro-1H-pyrazol-1-yl)-4-oxobutanoic acid] | 1.9 ± 5.2% | 15.6 ± 11.7% | 0.5 ± 5.8% | 5.6 ± 3.0% | −4.7 ± 2.9% | 20.2 ± 9.8% | 2.5 ± 4.6% | −1.8 ± 4.0% | 85.8% | 81.9% | 85.6% | 89.8% | 81% | 97.5% |  |  |  |  |  |
| CC(C)S(=O)(=O)NC(=O)CCC(=O)N1N=C(c2ccc(-c3ccccc3)cc2)CC1c1ccc2nccnc2c1 (stereo not shown) [Compound 69, 4-(3-([1,1′-Biphenyl]-4-yl)-5-(quinoxalin-6-yl)-4,5-dihydro-1H-pyrazol-1-yl)-N-(isopropylsulfonyl)-4-oxobutanamide] |  |  |  |  |  |  |  |  | 23.5% | 11.9% | 26.3% | 32.4% | 37.6 ± 5.6% | 92.8 ± 1.8% |  |  |  |  |  |
| O=C(O)CCC(=O)N1N=C(c2ccc(-c3ccc(OC(F)(F)F)c(F)c3)cc2)CC1c1ccc2nccnc2c1 (stereo not shown) [Compound 67, 4-(3-(3′-Fluoro-4′-(trifluoromethoxy)-[1,1′-biphenyl]-4-yl)-5-(quinoxalin-6-yl)-4,5-dihydro-1H-pyrazol-1-yl)-4-oxobutanoic acid] |  |  |  |  |  |  |  |  | 36.5% | 24.2% | 36.7% | 48.6% | 51.8 ± 8.4% | 92.4 ± 1.5% |  |  |  |  |  |
| O=C(O)CCC(=O)N1N=C(c2ccc(-c3ccc(Cl)cc3)cc2)CC1c1ccc2nccnc2c1 (stereo not shown) [Compound 19, 4-(3-(4′-Chloro-[1,1′-biphenyl]-4-yl)-5-(quinoxalin-6-yl)-4,5-dihydro-1H-pyrazol-1-yl)-4-oxobutanoic acid] |  |  |  |  |  |  |  |  |  |  |  |  | 5.3 ± 0.6% | 83.7 ± 0.6% | 91.1 ± 0.3% | No adverse effects | −6.5% | 8.9% | 11.4% |
| O=C(O)c1cccc(N2N=C(c3ccc(Cl)cc3)CC2c2ccc3nccnc3c2)c1 (stereo not shown) [Compound 60, 3-(3-(4-Chlorophenyl)-5-(quinoxalin-6-yl)-4,5-dihydro-1H-pyrazol-1-yl)benzoic acid] |  |  |  |  |  |  |  |  | 26.2% | 26.3% | 20.9% | 31.2% | 16.1 ± 0.5% | 90.9 ± 1.2% | 97.7 ± 0.6% |  |  |  |  |
